# ChEMBL document CHEMBL1125127 (J Med Chem, 1990)
# Tests used:
# [1] = molecular target: T1, Beta-2 adrenergic receptor (Canis lupus familiaris, UniProt P54833)
# Description: Tested for Beta-2 adrenergic receptor selectivity in canine lung tissue in anesthetized dogs
# [2] = Ratio of number of active animals to number of treated at dose 1.0 mg/kg administered intraperitoneally in Epinephrine-induced model in anesthetized dogs; 4/8; assay type: functional; settings: route intraperitoneal
# Canis familiaris [3] = assay: Concentration that causes a 20% increase in APD95 (action potential duration at 95% repolarization) from control value in anesthetized dogs; assay type: functional, Canis lupus familiaris
# [4] = Ratio of number of active animals to number of treated at dose 1.0-10 mg/kg administered intravenously in PES model in conscious dogs; 5/6
# Canis familiaris [5] = assay: Percent change in FRP from control at active dose 10 mg/kg administered intraperitoneally in anesthetized dogs; assay type: functional, Canis lupus familiaris; settings: route intraperitoneal
# [6] = Ratio of number of active animals to number of treated at dose 10 mg/kg administered intraperitoneally in anesthetized dogs; No of animals tested=2; assay type: functional; settings: route intraperitoneal
# Canis familiaris [7] = assay: Percent change in blood pressure (BP) from control at active dose 1.0-10 mg/kg administered intraperitoneally in anesthetized dogs; assay type: functional, Canis lupus familiaris
# [8] = molecular target: Beta-1 adrenergic receptor (Canis familiaris)
# Canis familiaris [9] = assay: Percent change in FRP from control at active dose 1.0-10 mg/kg administered intraperitoneally; assay type: functional, Canis lupus familiaris
# [10] = Ratio of number of active animals to number of treated administered intraperitoneally in Epinephrine-induced model in anesthetized dogs; 4/8; settings: route intraperitoneal
# Canis familiaris [11] = assay: Percent change in heart rate (HR) from control at active dose 10 mg/kg administered intraduodenally; settings: route intraduodenal
# [12] = molecular target: Beta adrenergic receptor (Canis familiaris)
# Canis familiaris [13] = assay: Percent change in blood pressure (BP) from control at active dose 10 mg/kg administered intraperitoneally in anesthetized dogs; assay type: functional, Canis lupus familiaris; settings: route intraperitoneal
# Canis familiaris [14] = assay: Maximum change in […] from control value in anesthetized dogs; 10 uM.; assay type: functional, Canis lupus familiaris
# Canis familiaris [15] = assay: Percent change in heart rate (HR) from control at active dose 1.0-10 mg/kg administered intraperitoneally in anesthetized dogs; assay type: functional, Canis lupus familiaris
# Canis familiaris [16] = assay: Percent change in heart rate (HR) from control at active dose 1.0-10 mg/kg administered intravenously in conscious dogs
# Canis familiaris [17] = assay: Percent change in heart rate (HR) from control at active dose 10 mg/kg administered intraduodenally; settings: route intraduodenal; remark: listed apart in the source
# [18] = molecular target: Adrenergic receptor beta (Canis lupus familiaris); assay: Tested for beta-receptor binding inhibition from canine ventricular tissue, using [3H]dihydroalprenolol as the radioligand in anesthetized dogs
# Canis familiaris [19] = assay: Percent change in FRP from control at active dose 1.0-10 mg/kg administered intravenously
# [20] = Ratio of number of active animals to number of treated at dose 30 mg/kg administered intraperitoneally in anesthetized dogs; No of animals tested=4; settings: route intraperitoneal
# Canis familiaris [21] = assay: Percent change in FRP from control at active dose 30 mg/kg administered intraperitoneally in anesthetized dogs; assay type: functional, Canis lupus familiaris; settings: route intraperitoneal
# Canis familiaris [22] = assay: Percent change in blood pressure (BP) from control at active dose 30 mg/kg administered intraperitoneally in anesthetized dogs; assay type: functional, Canis lupus familiaris; settings: route intraperitoneal
# Canis familiaris [23] = assay: Concentration at which maximum change in […] was observed from control value in anesthetized dogs; The maximum observed change APD95 from control value and concentration at 1 uM when this occurred; assay type: functional, Canis lupus familiaris
# Canis familiaris [24] = assay: Percent change in heart rate (HR) from control at active dose 30 mg/kg administered intraduodenally; settings: route intraduodenal
# [25] = Ratio of number of active animals to number of treated at dose 30 mg/kg administered intraperitoneally in anesthetized dogs; No of animals tested=2; assay type: functional; settings: route intraperitoneal
# Canis familiaris [26] = assay: Concentration at which maximum change in […] was observed from control value in anesthetized dogs; The maximum observed change APD95 from control value and concentration at 30 uM when this occurred; assay type: functional, Canis lupus familiaris
# Canis familiaris [27] = assay: Percent change in heart rate (HR) from control at active dose 30 mg/kg administered intraperitoneally; assay type: functional, Canis lupus familiaris; settings: route intraperitoneal
# Canis familiaris [28] = assay: Percent change in blood pressure (BP) from control at active dose 10-30 mg/kg administered intraperitoneally in anesthetized dogs; assay type: functional, Canis lupus familiaris
# Canis familiaris [29] = assay: Percent change in heart rate (HR) from control at active dose 10-30 mg/kg administered intraduodenally
# [30] = Ratio of number of active animals to number of treated at dose 10-30 mg/kg administered intraperitoneally in anesthetized dogs; No of animals tested=2; assay type: functional
# Canis familiaris [31] = assay: Percent change in FRP from control at active dose 10-30 mg/kg administered intraperitoneally in anesthetized dogs; assay type: functional, Canis lupus familiaris
# Canis familiaris [32] = assay: Percent change in FRP from control at active dose 0.3-10 mg/kg administered intraperitoneally; assay type: functional, Canis lupus familiaris
# [33] = Ratio of number of active animals to number of treated at dose 1.0 mg/kg administered intraperitoneally in Epinephrine-induced model in anesthetized dogs; 4/4; assay type: functional; settings: route intraperitoneal
# Canis familiaris [34] = assay: Concentration at which maximum change in […] was observed from control value in anesthetized dogs; The maximum observed change APD95 from control value and concentration at 100 uM when this occurred; assay type: functional, Canis lupus familiaris
# Canis familiaris [35] = assay: Percent change in heart rate (HR) from control at active dose 10-30 mg/kg administered intraperitoneally; assay type: functional, Canis lupus familiaris
# Canis familiaris [36] = assay: Percent change in heart rate (HR) from control at active dose 0.3-10 mg/kg administered intraperitoneally in anesthetized dogs; assay type: functional, Canis lupus familiaris
# Canis familiaris [37] = assay: Percent change in blood pressure (BP) from control at active dose 0.3-10 mg/kg administered intraperitoneally in anesthetized dogs; assay type: functional, Canis lupus familiaris
# [38] = Ratio of number of active animals to number of treated at dose 3.0 mg/kg administered intraperitoneally in Epinephrine-induced model in anesthetized dogs; 6/6; settings: route intraperitoneal
# Canis familiaris [39] = assay: Percent change in heart rate (HR) from control at active dose 0.1-10 mg/kg administered intraperitoneally in anesthetized dogs; assay type: functional, Canis lupus familiaris
# Canis familiaris [40] = assay: Percent change in blood pressure (BP) from control at active dose 0.1-10 mg/kg administered intraperitoneally in anesthetized dogs; assay type: functional, Canis lupus familiaris
# Canis familiaris [41] = assay: Percent change in FRP from control at active dose 0.1-10 mg/kg administered intravenously
# [42] = molecular target: T1, Beta-2 adrenergic receptor; assay: Beta2-receptor selectivity in canine lung tissue in anesthetized dogs; assay type: functional
# T1 sequence (P54833 whole entry): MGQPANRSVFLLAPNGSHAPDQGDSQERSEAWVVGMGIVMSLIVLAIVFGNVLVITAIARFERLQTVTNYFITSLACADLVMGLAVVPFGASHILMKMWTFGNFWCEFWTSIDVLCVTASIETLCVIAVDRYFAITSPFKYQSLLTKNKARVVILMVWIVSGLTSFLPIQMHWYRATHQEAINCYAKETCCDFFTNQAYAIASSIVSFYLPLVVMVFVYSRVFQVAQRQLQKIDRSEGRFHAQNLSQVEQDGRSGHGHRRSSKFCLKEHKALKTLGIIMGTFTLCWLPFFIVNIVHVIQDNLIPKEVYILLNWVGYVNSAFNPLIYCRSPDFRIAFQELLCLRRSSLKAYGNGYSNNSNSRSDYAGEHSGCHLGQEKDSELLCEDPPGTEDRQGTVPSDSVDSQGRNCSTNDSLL
compound,measurement,setting,value
Cc1ccccc1OCC(O)CN1CCN(c2ccc(NS(C)(=O)=O)cc2)CC1 (stereo unspecified),IC50,[1],6.6 µM
same,No. effective,[2],4
same,C20,Canis familiaris [3],<4.5 µM
same,No. effective,[4],5
same,Change,Canis familiaris [5],13%
same,Ratio,[6],2
same,Change,Canis familiaris [7],13%
same,IC50,[8],3.3 µM
same,Change,Canis familiaris [9],8%
same,Ratio,[10],0.5
same,Change,Canis familiaris [11],-11%
same,IC50,[12],2.3 µM
same,Change,Canis familiaris [13],11%
same,Max delta,Canis familiaris [14],53%
same,Change,Canis familiaris [15],-3%
OC(CNCCOc1ccc(-n2ccnc2)cc1)CONC(C1CC1)C1CC1 (stereo unspecified),Change,Canis familiaris [16],-13%
same,C20 APD95,Canis familiaris [3],1.5 µM
same,Change,Canis familiaris [5],20%
same,Change,Canis familiaris [17],-18%
same,Change,Canis familiaris [7],-5%
same,IC50,[18],0.3 µM
same,Change,Canis familiaris [19],3%
same,Change,Canis familiaris [13],2%
same,Max delta,Canis familiaris [14],87%
CS(=O)(=O)Nc1ccc(N2CCN(CC(O)COc3ccccc3)CC2)cc1 (stereo unspecified),Ratio,[20],1
same,Change,Canis familiaris [21],14%
same,C20,Canis familiaris [3],2.7 µM
same,Change,Canis familiaris [22],-17%
same,Max delta,Canis familiaris [23],52%
same,Change,Canis familiaris [24],-7%
same,IC50,[12],15.8 µM
CS(=O)(=O)Nc1ccc(N2CCN(CC(O)CON=C(C3CC3)C3CC3)CC2)cc1 (stereo unspecified),Ratio,[25],1
same,Change,Canis familiaris [21],15%
same,C20,Canis familiaris [3],8 µM
same,Change,Canis familiaris [22],17%
same,Max delta,Canis familiaris [26],45%
same,Change,Canis familiaris [7],8%
same,Change,Canis familiaris [9],6%
same,Change,Canis familiaris [27],-17%
same,Change,Canis familiaris [15],9%
CS(=O)(=O)Nc1ccc(C(=O)N2CCN(CC(O)COc3cccc4ccccc34)CC2)cc1 (stereo unspecified),C20,Canis familiaris [3],0.5 µM
same,Change,Canis familiaris [28],5%
same,Change,Canis familiaris [29],-25%
same,IC50,[12],30.9 µM
same,No. effective,[30],2
same,Change,Canis familiaris [31],19%
same,Max delta,Canis familiaris [14],55%
CC(C)NCC(O)c1ccc(NS(C)(=O)=O)cc1 (stereo unspecified) [SOTALOL],Change,Canis familiaris [32],14%
same,C20,Canis familiaris [3],14.4 µM
same,No. of active/no. of tested,[33],4
same,Max delta,Canis familiaris [34],48%
same,Change,Canis familiaris [28],9%
same,Change,Canis familiaris [35],-10%
same,Change,Canis familiaris [36],-6%
same,Change,Canis familiaris [37],8%
same,No. of active/no. of tested,[38],6
same,Change,Canis familiaris [31],17%
CS(=O)(=O)Nc1ccc(C(O)CNCCOc2ccc(-n3ccnc3)cc2)cc1 (stereo unspecified),Change,Canis familiaris [39],1%
same,C20 APD95,Canis familiaris [3],<1 µM
same,Change,Canis familiaris [5],24%
same,Max delta,Canis familiaris [34],155%
same,Change,Canis familiaris [17],-18%
same,Change,Canis familiaris [40],-4%
same,Change,Canis familiaris [13],17%
same,Change,Canis familiaris [41],15%
same,IC50,[42],5.7 µM
